# Entries after “also recorded” stand apart in the source; their conditions may differ. Where two headings read alike, the source gives them in different places.
# Experiments:
# [1] = system: nitric oxide (NO) production in BV-2 microglial cells; assay: LPS-stimulated accumulation of nitrite (NO metabolite) in BV-2 cells, Griess assay; type: cell-based, mouse; conditions: for IC50: read-out: NO, concentration required for 50% inhibition, LPS-stimulated BV-2 cells, 16 hrs; for inhibition of LPS-stimulated accumulation of the NO metabolite, nitrite / selectivity (inhibits IL-1β but not production of NO, iNOS, COX-2): BV-2 cells; for inhibition of LPS-stimulated accumulation of the NO metabolite, nitrite: concentrations up to 33 μM; for selectivity (inhibits IL-1β but not production of NO, iNOS, COX-2): same concentration range
# Procedure: (§2) Glia cell-based assays of the concentration-dependent activity of the compounds were done as previously described (Hu T, Ralay Ranaivo et al., Current Alzheimer's Research 2005, 2:197-205; Mirzoeva. S, et al., J Med Chem 2002, 45:563-566; Ralay Ranaivo H, et al., 3 Neurosci 2006, 26:662-670). BV-2 mouse microglial cells were cultured for one day in multiwell plates and then treated in serum-free media for 16 his with either control buffer or the standard glial activating stimulus lipopolysaccharide (LPS, front Salmonella typhimurium; 100 ng/ml) in the presence of diluent or different concentrations of compounds. The accumulation of nitrite, the stable metabolite of nitric oxide (NO), was measured in V-2 conditioned media by the Griess assay as previously described (Hu W, Ralay Ranaivo et al., Current Alzheimer's Research 2005, 2:197-205; Mirzoeva S, et al, J Med Chem 2002, 45:563-566; Mirzoeva 5, et al., Brain Res 1999, 844:126434). Levels of IL-1β, TNFα, MCP-1 and IL-1β in cell lysates were measured by the Mesoscale Discovery system as per the manufacturer's instructions. Cell lysates were analyzed by Western blots as described (Mirzoeva 5, et al., J. Med Chem 2002, 45:563-566; Ralay Ranaivo H, et al J Neurosci 2006, 26:662-670) to determine the levels of inducible nitric oxide synthase (iNOS) and cyclooxygenase-2 (COX-2).
# [2] = system: COX-2 production in activated BV-2 cells; assay: LPS-induced COX-2 levels in activated BV-2 cells, Western blot; type: cell-based, mouse
# Procedure: as §2
# [3] = system: LPS-induced IL-1β production in BV-2 microglia cells; assay: LPS-induced IL-1β production in BV-2 microglial cells; conditions: for inhibition of LPS-induced increases of IL-1β: BV2 microglial cell line, concentration dependence; for IC50: read-out: IL-1β, concentration required for 50% inhibition
# Procedure: as §2
# [4] = system: iNOS production in activated BV-2 cells; assay: LPS-induced iNOS levels in activated BV-2 cells, Western blot; type: cell-based, mouse
# Procedure: as §2
# [5] = system: human Aβ infusion mouse model; assay: Human Aβ infusion mouse model, Y maze behavioral assay; type: in vivo; conditions: 1.25, 2.5, 5, and 10 mg/kg
# Text: (§1) Once per day treatment will begin at day 21 after start of Aβ ICV infusion and continue for 14 days. Beginning at day 50 after start of Aβ ICV infusion, the Y maze test of spontaneous alternation will be used to evaluate hippocampus dependent spatial learning as described previously (Craf et al., J Mol. Neurosci. 24:115-122, 2004a). Briefly, each mouse will be placed in the “start” arm and then released to choose one of the two other arms. The mouse will be blocked from exiting the chosen arm for 30 s then they will be placed back in the start arm and released again to choose one of the two other arms. If the second choice is different from the first one, the mouse will be scored as alternating. Mice will be tested for 10 days with one trial per day, and a mean percent alternation will be calculated for each mouse. […] The brain will be removed and longitudinally bisected as described previously (Craft et al., Neurobiolo Aging 25:12834292, 2004b). […] The hippocampus will be dissected from the left half of the brain and snap-frozen for subsequent biochemical evaluation.
# [6] = system: human Aβ infusion mouse model; assay: Human Aβ infusion mouse model, hippocampal neuroinflammation and synaptic biochemical endpoints; type: in vivo; conditions: hippocampus, Aβ-infused mice, oral compound
# Procedure: The study design and treatment paradigm for intracerebroventricular (ICV) infusion of human oligomerie Aβ1-42 into the mouse will be as described previously (Craft et al., Neurobiol Aging 25:1283-1292, 2004b), except that compound administration will be by mouth. Female C57Bl/6 mice (Harlan) weighing 20-25 g (3-4 months old) will be housed in a pathogen free facility under an approximate 12 h/12 h dark and light cycle and they will have access ad libitum to food and water.
# as §1
# S100B levels in hippocampal supernatants will be measured by a empium-based ELISA essentially as previously described (Van Eldik and Griffin, Biochem Biophys Acta 1223:398-403, 1994). Synaptophysin levels in hippocampal supernatants will be quantified by ELISA following the procedure described previously (Craft at al, 20041, supra). PSD-95 levels will be determined by Western blots using anti-PSD-95 antibodies (1:100,000 dilution; Upstate Biotechnology) as described (Craft et al., 2004b).
# It was previously shown that Aβ-induced neuroinflammation is an early event associated with the onset and progression of pathophysiology, and can be suppressed by an inhibitor of glial activation. Female C57Bl/6 mice (Harlan) weighing […] (3-4 months old) were housed in a pathogen free facility under an approximate 12 h/12 h dark and light cycle and had access ad libitum to food and water. All animal procedures were approved by the Northwestern Animal Care and Use Committee.
# [7] = system: QT interval in Lead II electrocardiogram, anesthetized guinea pigs; assay: Cardiac QT interval prolongation assay in anesthetized guinea pigs; conditions: 0.3 mg/kg iv, positive control
# Procedure: The QT interval studies are performed by evaluating compounds for effects on QT interval in Lead II electrocardiograms measured in anesthetized guinea pigs (Hirohashi et al., 1991, Arzneim.-Forsch./Drug Res 41:9-18), one of the species recommended in the FDA white paper. Vehicle or compound is administered orally at 15 mg/kg (dosing volume of 10 ml/kg) to groups of male guinea pigs (weighing 330-350 g), with 5 animals per group. […] Heart rate, arterial blood pressure, and QT intervals are measured at baseline, and at 15, 30, 45, and 60 min after compound administration. Sotalol administered iv at 0.3 mg/kg serves as the positive control compound. The QT intervals are corrected for changes in heart rate using both Bazetes and Fridericia's formulae. Any increase in QT interval values over baseline values exceeding the upper 95% confidence limit of the mean changes at the corresponding time point in the vehicle-treated control group for two consecutive observation times indicates significant QT interval prolongation in the individually treated animals.
# The QT intervals (QTc) were corrected for changes in heart rate using both Bazett's and Fridericia's formulae.
# The test substance was dissolved in 2% Tween 80 and administered by oral administration. The substance was treated at 15 mg/kg with a dosing volume of 10 ml/kg. Duncan Hartley derived guinea pigs provided by MDS Pharma Services—Taiwan Ltd were used. Sotalol was obtained from Sigma, USA.
# Groups of guinea pigs (weighing 330-350 g) with 5 animals each were employed. The animals were anesthetized with urethane (1500 mg/kg, IV bolus injection in a volume of 5 ml/kg) and breathed spontaneously. Lead II ECG was obtained with subdermal needle electrodes and ECG signal conditioner. Heart rate was measured with a pulse rate tachometer. The carotid artery was cannulated with a catheter that was connected to a pressure transducer and a pressure processor for measurements of arterial blood pressure (BP). […] QTC intervals were obtained by correction for heart rate changes using Bazett's and Fridericia's formulae. Increase in QTc interval in individual treated guinea pigs that lies outside the upper limit of 95% confidence limits (mean±SD) of the changes for the vehicle-treated control at corresponding time points for two consecutive times is considered significant.
# [8] = LPS-stimulated BV-2 cells, 16 hrs
Compound,"inhibition of LPS-stimulated accumulation of the NO metabolite, nitrite [1]",suppression of LPS-induced production of COX-2 [2],inhibition of LPS-induced increases of IL-1β [3],suppression of LPS-induced production of iNOS [4],"selectivity (inhibits IL-1β but not production of NO, iNOS, COX-2) [1]",further results
4-Methyl-6-phenyl-3-(4-pyridin-2-yl)piperazin-1-yl)pyridazine [Compound 8],,,,,,IC50 [1]: > 25 µM
4-Methyl-6-phenyl-3-(4-pyridin-4-yl)piperazin-1-yl)pyridazine [Compound 9],,,,,,IC50 [1]: > 25 µM
4-methyl-6-phenyl-3-(4-pyrimidin-2-ylpiperazin-1-yl)pyridazine [MW01-2-151SRM],not inhibited,does not suppress,Concentration dependent inhibition,does not suppress,,
4-pyridyl-6-phenyl-3-(4-pyrimidin-2-ylpiperazin-1-yl)pyridazine [MW01-6-189WH],not inhibited,does not suppress,Concentration dependent inhibition,does not suppress,,
c1ccc(Cc2cc(-c3ccccc3)nnc2N2CCN(c3ncccn3)CC2)cc1 [Compound 2],,,,,,"IC50 [1]: > 25 µM; IC50 [3, 8]: 5.3 ± 0.6 µM"
CC(C)Cc1cc(-c2ccccc2)nnc1N1CCN(c2ncccn2)CC1 [Compound 4],,,,,,"IC50 [1]: 22 ± 3 µM; IC50 [3, 8]: 6.1 ± 2.5 µM"
Cc1cc(-c2ccccc2)nnc1N1CCN(c2cnccn2)CC1 [Compound 7],,,,,,"IC50 [3, 8]: 46.1 ± 23.3 µM"
"Cc1cc(-c2ccccc2)nnc1N1CCN(C2CCCCC2)CC1 [Compound 10, 3-(4-cyclohexylpiperazin-1-yl)-4-methyl-6-phenylpyridazine]",,,,,,"IC50 ([3]; Mus musculus, BV-2, 16 h): 31.4 ± 4.9 µM"
"Cc1cc(-c2ccccc2)nnc1N1CCN(C)CC1 [Compound 11, 4-Methyl-3-(4-methylpiperazin-1-yl)-6-phenylpyridazine]",,,,,,"IC50 ([3]; Mus musculus, BV-2, 16 h): 48.9 ± 23.2 µM"
"Clc1cc(-c2ccccc2)nnc1N1CCN(c2ncccn2)CC1 [MW01-6-127WH, 4-chloro-6-phenyl-3-(4-pyrimidin-2-ylpiperazin-1-yl)pyridazine]",,,,,,"IC50 ([1]; Mus musculus): 19 ± 8 µM; IC50 ([3]; Mus musculus, BV-2, 16 h): 9.5 ± 4 µM"
"Cc1cc(-c2ccccc2)c(N2CCN(c3ncccn3)CC2)nn1 [MW01-7-057WH, 6-methyl-4-phenyl-3-(4-pyrimidin-2-ylpiperazin-1-yl)pyridazine]",not inhibited,does not suppress,Concentration dependent inhibition,does not suppress,selective,prevention of Y-maze behavioral deficit [5]: significantly effective; loss of PSD-95 [6]: did not block; loss of synaptophysin [6]: blocked; up-regulation of IL-1β [6]: did not block; up-regulation of S100B [6]: blocked; loss of PSD-95 ([6]; listed as MW01-2-057WH): no significant effect
"c1ccc(-c2cc(-c3ccncc3)c(NCC3CC3)nn2)cc1 [MW01-7-084WH, N-(cyclopropylmethyl)-6-phenyl-4-(pyridin-4-yl)pyridazin-3-amine]",not inhibited,does not suppress,Concentration dependent inhibition,does not suppress,selective,prevention of Y-maze behavioral deficit [5]: trend toward preventing; loss of PSD-95 [6]: prevented; loss of synaptophysin [6]: not as effective as MW01-2-151SRM; up-regulation of IL-1β [6]: blocked; up-regulation of S100B [6]: blocked
"CN1CCN(c2nnc(-c3ccccc3)cc2-c2ccncc2)CC1 [MW01-7-085WH, 3-(4-methylpiperazin-1-yl)-6-phenyl-4-(pyridin-4-yl)pyridazine]",not inhibited,does not suppress,Concentration dependent inhibition,does not suppress,selective,prevention of Y-maze behavioral deficit [5]: trend toward preventing; loss of PSD-95 [6]: prevented; loss of synaptophysin [6]: not as effective as MW01-2-151SRM; up-regulation of IL-1β [6]: blocked; up-regulation of S100B [6]: blocked
"c1ccc(-c2cc(N3CCCCC3)c(N3CCN(c4ncccn4)CC3)nn2)cc1 [MW01-7-107WH, 2-(4-(6-phenyl-4-(piperidin-1-yl)pyridazin-3-yl)piperazin-1-yl)pyrimidine]",also inhibited,also inhibited,Concentration dependent inhibition,also inhibited,nonselective,
"c1ccc(-c2cc(-c3ccccc3)c(N3CCNCC3)nn2)cc1 [MW01-7-133WH, 4,6-diphenyl-3-piperazinylpyridazine]",not inhibited,does not suppress,Concentration dependent inhibition,does not suppress,selective,
"CC(C)NCC(O)c1ccc(NS(C)(=O)=O)cc1 (stereo not shown) [sotalol, reference compound]",,,,,,QTc interval prolongation [7]: caused significant prolongation; also recorded: significant increase
